Assay results taken from PMC6472001, “Phenolic Compounds from Humulus lupulus as Natural Antimicrobial Products: New Weapons in the Fight against Methicillin Resistant Staphylococcus aureus, Leishmania mexicana and Trypanosoma brucei Strains” (Molecules, 2019).

How the values were obtained:
Format in all cases: cell-based
[1] = tested on: Streptococcus agalactiae 13225; assay: Second screening, agar dilution MIC
Experimental: (§1) Clinical bacterial isolates from human samples collected in Lille (France) and some collection strains were used. The first screening step on pathogenic bacteria was carried out with crude hydro-alcoholic extracts of different hop parts (Table 1). The second screening was performed using sub-extracts of cones on Gram-positive bacteria, including methicillin-sensitive Staphylococcus aureus (MSSA) and methicillin-resistant Staphylococcus aureus […] (Table 2). These tests were carried out on Petri dishes, Mueller-Hinton Agar (MHA) (Oxoid, UK) was mixed with the plant extract solution in MeOH at 5% (solvent control: 5% MeOH). Final extract concentrations in Petri dishes ranged from 1250 to 4.9 µg/mL. A multi-headed inoculator allowed spotting bacterial strains at 10^5 CFU/mL in cysteinated Ringer (CR) solution (Merck®, France). Minimal Inhibitory Concentrations (MICs) were visually determined after 24 h of incubation at 37 °C.

[2] = tested on: Staphylococcus lugdunensis T26A3; assay: Second screening, agar dilution MIC; conditions: Table 2
Experimental: as §1

[3] = tested on: Enterococcus faecalis T37A4; assay: Second screening, agar dilution MIC
Experimental: as §1

[4] = tested on: Staphylococcus saprophyticus 08237; assay: Second screening, agar dilution MIC
Experimental: as §1

[5] = tested on: Streptococcus agalactiae T25.7; assay: Second screening, agar dilution MIC
Experimental: as §1

[6] = tested on: Enterococcus faecalis T26-B7; assay: Second screening, agar dilution MIC
Experimental: as §1

[7] = tested on: Staphylococcus aureus 8147; assay: Second screening, agar dilution MIC; conditions: Table 2
Experimental: as §1

[8] = tested on: Staphylococcus aureus T1.1; assay: Second screening, agar dilution MIC
Experimental: as §1

[9] = tested on: Staphylococcus aureus T26A4; assay: Second screening, agar dilution MIC
Experimental: as §1

Corynebacterium T25-17 [10] = assay: Second screening, agar dilution MIC; conditions: Table 2
Experimental: as §1

[11] = tested on: Enterococcus faecalis T34-2; assay: Second screening, agar dilution MIC
Experimental: as §1

[12] = tested on: Staphylococcus aureus T47A12; assay: Second screening, agar dilution MIC
Experimental: as §1

[13] = tested on: Staphylococcus epidermidis 5001; assay: Second screening, agar dilution MIC; conditions: Table 2
Experimental: as §1

[14] = tested on: Streptococcus agalactiae T38.2; assay: Second screening, agar dilution MIC
Experimental: as §1

[15] = tested on: Streptococcus agalactiae T40A2; assay: Second screening, agar dilution MIC
Experimental: as §1

[16] = tested on: Streptococcus agalactiae 13226; assay: Second screening, agar dilution MIC
Experimental: as §1

[17] = tested on: Staphylococcus aureus T25.10; assay: Second screening, agar dilution MIC
Experimental: as §1

[18] = tested on: Staphylococcus pettenkoferi T3.3; assay: Second screening, agar dilution MIC
Experimental: as §1

[19] = tested on: Staphylococcus aureus T25.3; assay: Second screening, agar dilution MIC
Experimental: as §1

[20] = tested on: Staphylococcus aureus T36B1; assay: Second screening, agar dilution MIC
Experimental: as §1

[21] = tested on: Staphylococcus aureus T6.7; assay: Second screening, agar dilution MIC
Experimental: as §1

[22] = tested on: Staphylococcus aureus T25.9; assay: Second screening, agar dilution MIC
Experimental: as §1

[23] = tested on: Enterococcus faecalis T39-C11; assay: Second screening, agar dilution MIC
Experimental: as §1

[24] = tested on: Staphylococcus aureus CIP 224; assay: Second screening, agar dilution MIC
Experimental: as §1

[25] = tested on: Staphylococcus aureus T28.1; assay: Second screening, agar dilution MIC
Experimental: as §1

Salmonella sp. 11033 = assay: First screening, agar dilution MIC
Experimental: as §1

Proteus mirabilis 11060 = assay: First screening, agar dilution MIC
Experimental: as §1

[26] = tested on: Acinetobacter baumannii 9010; assay: First screening, agar dilution MIC
Experimental: as §1

[27] = tested on: Citrobacter freundii 11041; assay: First screening, agar dilution MIC
Experimental: as §1

[28] = tested on: Staphylococcus lugdunensis T26A3; assay: First screening, agar dilution MIC
Experimental: as §1

[29] = tested on: Streptococcus agalactiae T25-7; assay: First screening, agar dilution MIC
Experimental: as §1

[30] = tested on: Staphylococcus epidermidis 10282; assay: First screening, agar dilution MIC
Experimental: as §1

[31] = tested on: Serratia marcescens 11057; assay: First screening, agar dilution MIC
Experimental: as §1

[32] = tested on: Mycobacterium smegmatis 5003; assay: First screening, agar dilution MIC
Experimental: as §1

[33] = tested on: Citrobacter freundii 11042; assay: First screening, agar dilution MIC
Experimental: as §1

[34] = tested on: Enterococcus faecalis C159-6; assay: First screening, agar dilution MIC
Experimental: as §1

Escherichia coli 8157 = assay: First screening, agar dilution MIC
Experimental: as §1

[35] = tested on: Staphylococcus aureus 8147; assay: First screening, agar dilution MIC
Experimental: as §1

[36] = tested on: Pseudomonas aeruginosa ATCC 27583; assay: First screening, agar dilution MIC
Experimental: as §1

[37] = tested on: Enterobacter cloacae 11051; assay: First screening, agar dilution MIC
Experimental: as §1

[38] = tested on: Staphylococcus aureus 8146; assay: First screening, agar dilution MIC
Experimental: as §1

[39] = tested on: Klebsiella pneumoniae 11016; assay: First screening, agar dilution MIC
Experimental: as §1

[40] = tested on: Providencia stuartii 11038; assay: First screening, agar dilution MIC
Experimental: as §1

Corynebacterium T25-17 [41] = assay: First screening, agar dilution MIC
Experimental: as §1

[42] = tested on: Enterobacter cloacae 11053; assay: First screening, agar dilution MIC
Experimental: as §1

[43] = tested on: Stenotrophomonas maltophilia; assay: First screening, agar dilution MIC
Experimental: as §1

[44] = tested on: Staphylococcus epidermidis 5001; assay: First screening, agar dilution MIC
Experimental: as §1

[45] = tested on: Serratia marcescens 11056; assay: First screening, agar dilution MIC
Experimental: as §1

Enterococcus sp. 8153 = assay: First screening, agar dilution MIC
Experimental: as §1

[46] = tested on: Klebsiella pneumoniae 11017; assay: First screening, agar dilution MIC
Experimental: as §1

[47] = tested on: Enterobacter cloacae 11050; assay: First screening, agar dilution MIC
Experimental: as §1

[48] = tested on: Streptococcus agalactiae T53C2; assay: First screening, agar dilution MIC
Experimental: as §1

[49] = tested on: Acinetobacter baumannii 9011; assay: First screening, agar dilution MIC
Experimental: as §1

Escherichia coli 8138 = assay: First screening, agar dilution MIC
Experimental: as §1

[50] = tested on: Escherichia coli ATCC 25922; assay: First screening, agar dilution MIC
Experimental: as §1

[51] = tested on: Pseudomonas aeruginosa 8131; assay: First screening, agar dilution MIC
Experimental: as §1

[52] = tested on: Staphylococcus warneri T12A12; assay: First screening, agar dilution MIC
Experimental: as §1

[53] = tested on: Streptococcus dysgalactiae T46C14; assay: First screening, agar dilution MIC
Experimental: as §1

In the case of `CN[C@H](CC(C)C)C(=O)N[C@H]1C(=O)N[C@@H](CC(N)=O)C(=O)N[C@H]2C(=O)N[C@H]3C(=O)N[C@H](C(=O)N[C@H](C(=O)O)c4cc(O)cc(O)c4-c4cc3ccc4O)[C@H](O)c3ccc(c(Cl)c3)Oc3cc2cc(c3O[C@@H]2O[C@H](CO)[C@@H](O)[C@H](O)[C@H]2O[C@H]2C[C@](C)(N)[C@H](O)[C@H](C)O2)Oc2ccc(cc2Cl)[C@H]1O` [VAN, Vancomycin], the “Susceptibility to VAN” value [1] is reported as “S (Vancomycin (VAN) S ≤ 4)”, the “Susceptibility to VAN” value [2] is reported as “S (Vancomycin (VAN) S ≤ 4)” and the “Susceptibility to VAN” value [3] is reported as “S (Vancomycin (VAN) S ≤ 4)”. The “Susceptibility to VAN” value [4] was “S (Vancomycin (VAN) S ≤ 4)”, the “Susceptibility to VAN” value [5] was “S (Vancomycin (VAN) S ≤ 4)” and the “Susceptibility to VAN” value [6] was “S (Vancomycin (VAN) S ≤ 4)”. The “Susceptibility to VAN” value [7] was “S (Vancomycin (VAN) S ≤ 4)”, the “Susceptibility to VAN” value [8] was “S (Vancomycin (VAN) S ≤ 4)” and the “Susceptibility to VAN” value [9] was “S (Vancomycin (VAN) S ≤ 4)”. The “Susceptibility to VAN” value (Corynebacterium T25-17 [10]) was “S (Vancomycin (VAN) S ≤ 4)”, the “Susceptibility to VAN” value [11] was “S (Vancomycin (VAN) S ≤ 4)” and the “Susceptibility to VAN” value [12] was “S (Vancomycin (VAN) S ≤ 4)”. For the same compound, the “Susceptibility to VAN” value [13] was “S (Vancomycin (VAN) S ≤ 4)”, the “Susceptibility to VAN” value [14] was “S (Vancomycin (VAN) S ≤ 4)” and the “Susceptibility to VAN” value [15] was “S (Vancomycin (VAN) S ≤ 4)”. For the same compound, the “Susceptibility to VAN” value [16] was “S (Vancomycin (VAN) S ≤ 4)”, the “Susceptibility to VAN” value [17] was “S (Vancomycin (VAN) S ≤ 4)” and the “Susceptibility to VAN” value [18] was “S (Vancomycin (VAN) S ≤ 4)”. The “Susceptibility to VAN” value [19] was “S (Vancomycin (VAN) S ≤ 4)”, the “Susceptibility to VAN” value [20] was “S (Vancomycin (VAN) S ≤ 4)” and the “Susceptibility to VAN” value [21] was “S (Vancomycin (VAN) S ≤ 4)”. The “Susceptibility to VAN” value [22] was “S (Vancomycin (VAN) S ≤ 4)”, the “Susceptibility to VAN” value [23] was “S (Vancomycin (VAN) S ≤ 4)” and the “Susceptibility to VAN” value [24] was “S (Vancomycin (VAN) S ≤ 4)”. The “Susceptibility to VAN” value [25] was “S (Vancomycin (VAN) S ≤ 4)”, the “Susceptibility to VAN” value (Salmonella sp. 11033) was “R (R > 16)” and the “Susceptibility to VAN” value (Proteus mirabilis 11060) was “R (R > 16)”. For the same compound, the “Susceptibility to VAN” value [26] was “R (R > 16)”, the “Susceptibility to VAN” value [27] was “R (R > 16)” and the “Susceptibility to VAN” value [28] was “S (Vancomycin (VAN) S ≤ 4)”. The “Susceptibility to VAN” value [29] was “S (Vancomycin (VAN) S ≤ 4)”, the “Susceptibility to VAN” value [30] was “S (Vancomycin (VAN) S ≤ 4)” and the “Susceptibility to VAN” value [31] was “R (R > 16)”. The “Susceptibility to VAN” value [32] was “S (Vancomycin (VAN) S ≤ 4)”, the “Susceptibility to VAN” value [33] was “R (R > 16)” and the “Susceptibility to VAN” value [34] was “S (Vancomycin (VAN) S ≤ 4)”. For the same compound, the “Susceptibility to VAN” value (Escherichia coli 8157) was “R (R > 16)”, the “Susceptibility to VAN” value [35] was “S (Vancomycin (VAN) S ≤ 4)” and the “Susceptibility to VAN” value [36] was “R (R > 16)”. The “Susceptibility to VAN” value [37] was “R (R > 16)”, the “Susceptibility to VAN” value [38] was “S (Vancomycin (VAN) S ≤ 4)” and the “Susceptibility to VAN” value [39] was “R (R > 16)”. The “Susceptibility to VAN” value [40] was “R (R > 16)”, the “Susceptibility to VAN” value (Corynebacterium T25-17 [41]) was “S (Vancomycin (VAN) S ≤ 4)” and the “Susceptibility to VAN” value [42] was “R (R > 16)”. The “Susceptibility to VAN” value [43] was “R (R > 16)”, the “Susceptibility to VAN” value [44] was “S (Vancomycin (VAN) S ≤ 4)” and the “Susceptibility to VAN” value [45] was “R (R > 16)”. The “Susceptibility to VAN” value (Enterococcus sp. 8153) was “S (Vancomycin (VAN) S ≤ 4)”, the “Susceptibility to VAN” value [46] was “R (R > 16)” and the “Susceptibility to VAN” value [47] was “R (R > 16)”. The “Susceptibility to VAN” value [48] was “S (Vancomycin (VAN) S ≤ 4)”, the “Susceptibility to VAN” value [49] was “R (R > 16)” and the “Susceptibility to VAN” value (Escherichia coli 8138) was “R (R > 16)”. For the same compound, the “Susceptibility to VAN” value [50] was “R (R > 16)”, the “Susceptibility to VAN” value [51] was “R (R > 16)” and the “Susceptibility to VAN” value [52] was “R (R > 16)”. The “Susceptibility to VAN” value [53] was “S (Vancomycin (VAN) S ≤ 4)”.
